The CheMixHub viscosity set
± gives the uncertainty stated by the source.

Test: xn = mol fraction of the nth substance listed

CCCCN(CCCC)CCCC + CC(C)O
viscosity [mPa·s], 101.33 kPa
Details	298.15 K	303.15 K	308.15 K	313.15 K	318.15 K	323.15 K
x1 = 0.0562	1.977 ± 0.12	–	1.524 ± 0.092	–	1.172 ± 0.071	–
x1 = 0.1016	–	1.679 ± 0.1	–	1.292 ± 0.078	–	1.009 ± 0.061
x1 = 0.1175	1.876 ± 0.11	–	1.46 ± 0.088	–	1.132 ± 0.068	–
x1 = 0.1477	–	1.619 ± 0.098	–	1.256 ± 0.076	–	0.988 ± 0.06
x1 = 0.1499	1.827 ± 0.11	–	1.429 ± 0.086	–	1.113 ± 0.067	–
x1 = 0.1897	1.772 ± 0.11	–	1.394 ± 0.084	–	1.092 ± 0.066	–
x1 = 0.1953	–	1.562 ± 0.094	–	1.223 ± 0.074	–	0.968 ± 0.059
x1 = 0.224	1.728 ± 0.1	–	1.367 ± 0.083	–	1.075 ± 0.065	–
x1 = 0.2585	–	1.496 ± 0.09	–	1.185 ± 0.072	–	0.945 ± 0.057
x1 = 0.2648	1.681 ± 0.1	–	1.338 ± 0.081	–	1.057 ± 0.064	–
x1 = 0.3035	1.641 ± 0.099	–	1.313 ± 0.079	–	1.041 ± 0.063	–
x1 = 0.3076	–	1.452 ± 0.088	–	1.16 ± 0.07	–	0.93 ± 0.056
x1 = 0.3493	1.6 ± 0.097	–	1.287 ± 0.078	–	1.024 ± 0.062	–
x1 = 0.3539	–	1.415 ± 0.086	–	1.139 ± 0.069	–	0.918 ± 0.055
x1 = 0.404	1.559 ± 0.094	–	1.26 ± 0.076	–	1.007 ± 0.061	–
x1 = 0.4061	–	1.379 ± 0.083	–	1.118 ± 0.068	–	0.906 ± 0.055
x1 = 0.4528	1.528 ± 0.092	1.351 ± 0.082	1.24 ± 0.075	1.101 ± 0.067	0.994 ± 0.06	0.898 ± 0.054
x1 = 0.4899	1.508 ± 0.091	–	1.226 ± 0.074	–	0.985 ± 0.06	–
x1 = 0.5047	–	1.324 ± 0.08	–	1.086 ± 0.066	–	0.889 ± 0.054
x1 = 0.5476	–	1.304 ± 0.079	–	1.073 ± 0.065	–	0.884 ± 0.053
x1 = 0.5541	1.479 ± 0.089	–	1.206 ± 0.073	–	0.972 ± 0.059	–
x1 = 0.604	1.46 ± 0.088	–	1.192 ± 0.072	–	0.962 ± 0.058	–
x1 = 0.611	–	1.278 ± 0.077	–	1.059 ± 0.064	–	0.876 ± 0.053
x1 = 0.6925	1.434 ± 0.087	–	1.172 ± 0.071	–	0.948 ± 0.057	–
x1 = 0.7023	–	1.247 ± 0.075	–	1.042 ± 0.063	–	0.866 ± 0.052
x1 = 0.7872	–	1.221 ± 0.074	–	1.027 ± 0.062	–	0.859 ± 0.052
x1 = 0.8457	1.399 ± 0.085	–	1.145 ± 0.069	–	0.927 ± 0.056	–
x1 = 0.9375	–	1.181 ± 0.071	–	1.004 ± 0.061	–	0.848 ± 0.051
x1 = 0.9696	–	1.173 ± 0.071	–	0.999 ± 0.06	–	0.847 ± 0.051

CCCCN(CCCC)CCCC + CCCO
viscosity [mPa·s]
Details	298.15 K	303.15 K	308.15 K	313.15 K	318.15 K	323.15 K
101.3 kPa, x1 = 0.0929	–	1.75 ± 0.021	–	1.364 ± 0.017	–	–
101.3 kPa, x1 = 0.1877	–	1.712 ± 0.02	–	1.328 ± 0.016	–	–
101.3 kPa, x1 = 0.2897	–	–	–	1.289 ± 0.016	–	–
101.3 kPa, x1 = 0.3991	–	1.605 ± 0.019	–	1.245 ± 0.015	–	–
101.3 kPa, x1 = 0.5176	–	1.529 ± 0.018	–	–	–	–
101.3 kPa, x1 = 0.616	–	1.462 ± 0.017	–	–	–	–
101.3 kPa, x1 = 0.7064	–	1.392 ± 0.017	–	–	–	–
101.3 kPa, x1 = 0.8055	–	1.307 ± 0.016	–	–	–	–
101.3 kPa, x1 = 0.8864	–	1.252 ± 0.015	–	–	–	–
101.33 kPa, x1 = 0.0994	–	–	–	1.412 ± 0.085	–	1.318 ± 0.08
101.33 kPa, x1 = 0.1089	1.974 ± 0.12	–	1.622 ± 0.098	–	1.465 ± 0.089	–
101.33 kPa, x1 = 0.1447	–	1.7 ± 0.1	–	1.398 ± 0.085	–	1.343 ± 0.081
101.33 kPa, x1 = 0.1916	–	–	–	1.375 ± 0.083	–	1.342 ± 0.081
101.33 kPa, x1 = 0.2045	1.895 ± 0.12	–	1.558 ± 0.094	–	1.436 ± 0.087	–
101.33 kPa, x1 = 0.2539	1.845 ± 0.11	1.603 ± 0.097	1.519 ± 0.092	1.34 ± 0.081	1.403 ± 0.085	1.315 ± 0.079
101.33 kPa, x1 = 0.3026	1.795 ± 0.11	1.558 ± 0.094	1.481 ± 0.09	1.308 ± 0.079	1.366 ± 0.083	1.283 ± 0.078
101.33 kPa, x1 = 0.3485	–	1.517 ± 0.092	–	1.277 ± 0.077	–	1.247 ± 0.075
101.33 kPa, x1 = 0.3584	1.739 ± 0.11	–	1.437 ± 0.087	–	1.32 ± 0.08	–
101.33 kPa, x1 = 0.4003	1.7 ± 0.1	1.473 ± 0.089	1.407 ± 0.085	1.244 ± 0.075	1.286 ± 0.078	1.206 ± 0.073
101.33 kPa, x1 = 0.4469	1.66 ± 0.1	1.436 ± 0.087	1.375 ± 0.083	1.216 ± 0.074	1.249 ± 0.076	1.17 ± 0.071
101.33 kPa, x1 = 0.4987	1.619 ± 0.098	1.4 ± 0.085	1.342 ± 0.081	1.187 ± 0.072	1.211 ± 0.073	1.133 ± 0.068
101.33 kPa, x1 = 0.5417	–	1.372 ± 0.083	–	1.165 ± 0.07	–	1.104 ± 0.067
101.33 kPa, x1 = 0.5569	1.58 ± 0.096	–	1.309 ± 0.079	–	1.171 ± 0.071	–
101.33 kPa, x1 = 0.6053	1.551 ± 0.094	1.335 ± 0.081	1.284 ± 0.078	1.136 ± 0.069	1.14 ± 0.069	1.065 ± 0.064
101.33 kPa, x1 = 0.6587	1.523 ± 0.092	–	1.259 ± 0.076	–	1.108 ± 0.067	–
101.33 kPa, x1 = 0.6973	1.504 ± 0.091	1.289 ± 0.078	1.242 ± 0.075	1.098 ± 0.066	1.085 ± 0.066	1.012 ± 0.061
101.33 kPa, x1 = 0.7606	1.474 ± 0.089	–	1.216 ± 0.074	–	1.047 ± 0.063	–
101.33 kPa, x1 = 0.7832	–	1.251 ± 0.076	–	1.066 ± 0.064	–	0.962 ± 0.058
101.33 kPa, x1 = 0.8067	1.454 ± 0.088	–	1.197 ± 0.072	–	1.02 ± 0.062	–
101.33 kPa, x1 = 0.9104	1.409 ± 0.085	–	1.156 ± 0.07	–	0.959 ± 0.058	–
101.33 kPa, x1 = 0.9361	–	1.189 ± 0.072	–	1.013 ± 0.061	–	0.873 ± 0.053
101.33 kPa, x1 = 0.9688	–	1.177 ± 0.071	–	1.004 ± 0.061	–	0.858 ± 0.052

CCCCN(CCCC)CCCC + CCO
viscosity [mPa·s], 101.33 kPa
Details	298.15 K	303.15 K	308.15 K	313.15 K	318.15 K	323.15 K
x1 = 0.0992	–	1.26 ± 0.076	–	1.084 ± 0.066	–	0.951 ± 0.057
x1 = 0.1034	1.393 ± 0.084	–	1.17 ± 0.071	–	1.011 ± 0.061	–
x1 = 0.1456	1.458 ± 0.088	–	1.225 ± 0.074	–	1.06 ± 0.064	–
x1 = 0.1561	–	1.334 ± 0.081	–	1.151 ± 0.07	–	1.015 ± 0.061
x1 = 0.1969	–	1.357 ± 0.082	–	1.174 ± 0.071	–	1.035 ± 0.063
x1 = 0.2099	1.508 ± 0.091	–	1.267 ± 0.077	–	1.094 ± 0.066	–
x1 = 0.2529	1.52 ± 0.092	1.371 ± 0.083	1.276 ± 0.077	1.183 ± 0.071	1.098 ± 0.066	1.04 ± 0.063
x1 = 0.2945	–	1.367 ± 0.083	–	1.18 ± 0.071	–	1.033 ± 0.062
x1 = 0.3036	1.52 ± 0.092	–	1.274 ± 0.077	–	1.091 ± 0.066	–
x1 = 0.3531	1.511 ± 0.091	–	1.265 ± 0.076	–	1.078 ± 0.065	–
x1 = 0.3639	–	1.349 ± 0.082	–	1.163 ± 0.07	–	1.012 ± 0.061
x1 = 0.3986	1.501 ± 0.091	1.341 ± 0.081	1.255 ± 0.076	1.153 ± 0.07	1.065 ± 0.064	1 ± 0.06
x1 = 0.4508	1.488 ± 0.09	1.325 ± 0.08	1.242 ± 0.075	1.137 ± 0.069	1.049 ± 0.063	0.982 ± 0.059
x1 = 0.4951	1.477 ± 0.089	–	1.231 ± 0.074	–	1.036 ± 0.063	–
x1 = 0.503	–	1.309 ± 0.079	–	1.122 ± 0.068	–	0.967 ± 0.058
x1 = 0.5448	1.467 ± 0.089	–	1.221 ± 0.074	–	1.024 ± 0.062	–
x1 = 0.5537	–	1.294 ± 0.078	–	1.11 ± 0.067	–	0.954 ± 0.058
x1 = 0.601	1.458 ± 0.088	–	1.211 ± 0.073	–	1.012 ± 0.061	–
x1 = 0.6426	–	1.267 ± 0.077	–	1.09 ± 0.066	–	0.936 ± 0.057
x1 = 0.6648	1.448 ± 0.088	–	1.199 ± 0.072	–	0.998 ± 0.06	–
x1 = 0.7126	1.441 ± 0.087	–	1.19 ± 0.072	–	0.988 ± 0.06	–
x1 = 0.7382	–	1.249 ± 0.075	–	1.067 ± 0.064	–	0.915 ± 0.055
x1 = 0.7934	1.424 ± 0.086	–	1.173 ± 0.071	–	0.967 ± 0.058	–
x1 = 0.8711	–	1.207 ± 0.073	–	1.027 ± 0.062	–	0.876 ± 0.053
x1 = 0.9196	–	1.186 ± 0.072	–	1.012 ± 0.061	–	0.861 ± 0.052
x1 = 0.9232	1.391 ± 0.084	–	1.138 ± 0.069	–	0.928 ± 0.056	–
x1 = 0.9604	–	1.176 ± 0.071	–	1.002 ± 0.061	–	0.851 ± 0.051
